In the assay the test system is 616215-338-R-J1-PDC tumor spheroids, viability. Nature of the assay: Anticancer human tumor 616215-338-R-J1-PDC patient-derived colon adenocarcinoma cell line growth inhibition [GQUAD]. The settings on record: spheroids with HUVEC and MSC; for viability, T/C: stronger effect = lower value. From the text:
DNA G-quadruplex Stabilizer Agents in Combinations in Complex Spheroids
A high-throughput screen of multi-cell type tumor spheroids was designed to identify active combinations of DNA G-quadruplex stabilizer agents and targeted small molecules. Complex spheroids include a stromal component modeled by human endothelial cells (HUVEC) and fibroblasts modeled by human mesenchymal stem cells (MSCs). The concentration ranges selected for each drug and investigational agent were based upon clinically achievable concentrations if the clinical Cmax of the agent was known.
Compounds. The drugs and investigational agents: pidnarulex (CX-5461; NSC782164), APTO-253 (NSC789042), BRACO-19 (NSC847499), peposertib (NSC802822), ceralasertib (NSC780249), elimusertib (NSC800525), camonsertib (NSC841442), AZD-1390 (NSC803789), olaparib (NSC753686), talazoparib (NSC767125), ART-558 (NSC835418), sotorasib (NSC818433), MRTX-1133 (NSC836407), SN-38 (NSC673596), topotecan (NSC609699), etoposide (NSC141540), doxorubicin (NSC123127), gemcitabine (NSC613327), 5-fluorouracil (NSC19893), paclitaxel (NSC125973), vemurafenib (NSC761431), panobinostat (NSC761190), R-306465 (JNJ-16241199; NSC773264), adavosertib (NSC754352), TP-3654 (NSC805149), carboplatin (NSC241240), KSQ-4279 (NSC840948), and staurosporine (NSC755774) were obtained from the National Cancer Institute (NCI) Developmental Therapeutics Program Chemical Repository (34). The FDA-approved anticancer drug set is available from the NCI Developmental Therapeutics Program. […] The stock solutions were prepared in dimethyl sulfoxide (DMSO, Sigma-Aldrich, St. Louis, MO, cat. D2650) at 800-fold the tested concentration and stored at -70 degrees C prior to their use. All drugs and investigational agents were tested over a range starting from a high concentration at or near the clinical Cmax and decreasing in half-log increments. If the clinical Cmax for an agent had not been determined, the highest concentration tested was 10 microM.
2.3 Cell Culture. All cells were maintained in an incubator at 37 degrees C and 5% CO2 with 95% humidity. The PDC lines were cultured according to standard operating procedures established by the NCI PDMR. All PDCs were thawed and cultured in Matrigel-coated flasks prepared with a working solution of 1X Ham's F-12 nutrient mix, without supplementation (Invitrogen, cat. 11765054), 100 U/mL penicillin-streptomycin (Invitrogen, cat. 15140122), and 2.5% Matrigel (Corning Inc., cat. 354248) for the first three passages. The 857933-349-R-J2-PDC line was cultured in 6C/Colon 1B media, which includes advanced DMEM/F-12 (Thermo Fisher Scientific, cat. 12634028), 10 mM HEPES (Thermo Fisher Scientific, cat. 15630080), 1X GlutaMAX supplement (Thermo Fisher Scientific, cat. 35050061), 0.1 mg/mL primocin (InvivoGen, cat. ant-pm-2), 10% defined fetal bovine serum, heat inactivated (HyClone Laboratories Inc., cat. SH30070.03HI), 50% L-WRN conditioned media (ATCC, cat. CRL-3276), 1.25 mM N-Acetyl-L-cysteine (Sigma-Aldrich, cat. A9165), 10 mM nicotinamide (Sigma-Aldrich, cat. N0636), 1X B-27 supplement (Thermo Fisher Scientific, cat. 17504044), 1X N-2 supplement (Thermo Fisher Scientific, cat. 17502048), 10 microM Y-27632 dihydrochloride (Tocris Bioscience, cat. 1254), and 50 ng/mL human EGF recombinant protein (Thermo Fisher Scientific, cat. PHG0311). The 485176-168-R4-J1-PDC line was cultured in Panc media, which includes all 6C/Colon 1B media components plus 100 ng/mL human FGF-10 (Thermo Fisher Scientific, cat. 100-26), 500 nM SB-431542 (Selleckchem, cat. S1067), and gastrin (Tocris, cat. 3006).
[…]

[1] abbreviates: curve of first compound, second compound 0.0316 µM.
Where [2] appears, read: curve of first compound, second compound 0.1 µM.
[3] abbreviates: curve of first compound, second compound 0.316 µM.
Setting [4] is: curve of first compound, second compound 1 µM.
Setting [5] is: curve of first compound, second compound 3.16 µM.
The mark [6] stands for this setting: curve of first compound, second compound 10 µM.
Setting [7] is: second compound 0.0316 µM, first compound 0.0316 µM.
The mark [8] stands for this setting: second compound 0.0316 µM, first compound 0.1 µM.
The mark [9] stands for this setting: second compound 0.0316 µM, first compound 0.316 µM.
[10] abbreviates: second compound 0.0316 µM, first compound 1 µM.
The mark [11] stands for this setting: second compound 0.0316 µM, first compound 3.16 µM.
[12] abbreviates: second compound 0.0316 µM, first compound 10 µM.
Where [13] appears, read: second compound 0.1 µM, first compound 0.0316 µM.
The mark [14] stands for this setting: second compound 0.1 µM, first compound 0.1 µM.
[15] abbreviates: second compound 0.1 µM, first compound 0.316 µM.
[16] abbreviates: second compound 0.1 µM, first compound 1 µM.
Setting [17] is: second compound 0.1 µM, first compound 3.16 µM.
Setting [18] is: second compound 0.1 µM, first compound 10 µM.
[19] abbreviates: second compound 0.316 µM, first compound 0.0316 µM.
[20] abbreviates: second compound 0.316 µM, first compound 0.1 µM.
Setting [21] is: second compound 0.316 µM, first compound 0.316 µM.
The mark [22] stands for this setting: second compound 0.316 µM, first compound 1 µM.
Where [23] appears, read: second compound 0.316 µM, first compound 3.16 µM.
[24] abbreviates: second compound 0.316 µM, first compound 10 µM.
Where [25] appears, read: second compound 1 µM, first compound 0.0316 µM.
[26] abbreviates: second compound 1 µM, first compound 0.1 µM.
The mark [27] stands for this setting: second compound 1 µM, first compound 0.316 µM.
The mark [28] stands for this setting: second compound 1 µM, first compound 1 µM.
The mark [29] stands for this setting: second compound 1 µM, first compound 3.16 µM.
[30] abbreviates: second compound 1 µM, first compound 10 µM.
[31] abbreviates: second compound 3.16 µM, first compound 0.0316 µM.
[32] abbreviates: second compound 3.16 µM, first compound 0.1 µM.
[33] abbreviates: second compound 3.16 µM, first compound 0.316 µM.
Setting [34] is: second compound 3.16 µM, first compound 1 µM.
Where [35] appears, read: second compound 3.16 µM, first compound 3.16 µM.
[36] abbreviates: second compound 3.16 µM, first compound 10 µM.
[37] abbreviates: second compound 10 µM, first compound 0.0316 µM.
The mark [38] stands for this setting: second compound 10 µM, first compound 0.1 µM.
[39] abbreviates: second compound 10 µM, first compound 0.316 µM.
Setting [40] is: second compound 10 µM, first compound 1 µM.
[41] abbreviates: second compound 10 µM, first compound 3.16 µM.
[42] abbreviates: second compound 10 µM, first compound 10 µM.

Each structure is given as a SMILES string. Several values for one entry are separate records, joined by “and”; a condition that tells them apart may be missing. Equal entries are not always repeated.
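Also: spheroids exposed to agents for 7 days before readout.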
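For viability, T/C in this document: percent viability relative to DMSO vehicle control wells taken as 100%.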

Consider `COc1cc(C2c3cc4c(cc3C(OC3OC5COC(C)OC5C(O)C3O)C3COC(=O)C23)OCO4)cc(OC)c1O` (stereo not given) + CN(C)c1ccc(Nc2c3ccc(NC(=O)CCN4CCCC4)cc3nc3cc(NC(=O)CCN4CCCC4)ccc23)cc1, for which the IC50 (commonly the point on the concentration scale where inhibition reaches its midpoint) is 967 nM under setting [1]; 655 nM under setting [2]; 693 nM under setting [3]; 762 nM under setting [4]; 644 nM under setting [5]; 491 nM under setting [6]. Also, the viability, T/C (in general, the ratio of treated to control) is 99.3% under setting [7]; 103% under setting [8]; 67.8% under setting [9]; 51.9% under setting [10]; 31.9% under setting [11]; 20.7% under setting [12]. Besides, the viability, T/C under setting [13] is 94.7%; the viability, T/C under setting [14] is 107%; the viability, T/C under setting [15] is 71.6%; the viability, T/C under setting [16] is 37.5%; the viability, T/C under setting [17] is 31%; the viability, T/C under setting [18] was 18.7%. Besides, the viability, T/C was 100% under setting [19]; 95.6% under setting [20]; 63.4% under setting [21]; 41% under setting [22]; 33.1% under setting [23]; 16.6% under setting [24]. The viability, T/C by setting is: under setting [25], 100%; under setting [26], 91.6%; under setting [27], 58.5%; under setting [28], 44.6%; under setting [29], 34.3%; under setting [30], 14.2%. The viability, T/C is, setting by setting: under setting [31], 96.4%; under setting [32], 85%; under setting [33], 55.9%; under setting [34], 43.6%; under setting [35], 31.6%; under setting [36], 15.9%. Also, the viability, T/C was 97.2% under setting [37]; 83.2% under setting [38]; 52.6% under setting [39]; 40% under setting [40]; 25.9% under setting [41]; 15% under setting [42].

With `CC(C)n1c(=O)n(C)c2cnc3cc(F)c(-c4ccc(OCCCN5CCCCC5)nc4)cc3c21`, the viability, T/C (compound 0.0316 µM) is 107% and 104% and 97.4%; the viability, T/C (compound 0.1 µM) was 99% and 102% and 91.9%; the viability, T/C (compound 0.316 µM) is 106% and 98.5% and 96.9%; the viability, T/C (compound 1 µM) was 110% and 101% and 92.8%; the viability, T/C (compound 3.16 µM) was 106% and 110% and 105%; the viability, T/C (compound 10 µM) is 53% and 94.7% and 96.5%. Under “curve of compound”, the IC50 is more than 10000 nM.

On to `CC(C)(O)C1CCC(Nc2ccc3ncc(-c4cccc(C(F)(F)F)c4)n3n2)CC1` (stereo not given), for which the viability, T/C was 103% and 105% (2×) (compound 0.0316 µM); 92.2% and 90.8% and 100% (compound 0.1 µM); 108% and 95.6% and 93.2% (compound 0.316 µM); 16.1% and 27.9% and 33.8% (compound 1 µM); 0.52% and 1.27% and 3.2% (compound 3.16 µM); 12.4% and 1.83% and 2.83% (compound 10 µM). Also, for the setting “curve of compound”, the IC50 is 631 nM and 686 nM and 729 nM.

For the molecule `C=CC(=O)N1CCN(c2nc(=O)n(-c3c(C)ccnc3C(C)C)c3nc(-c4c(O)cccc4F)c(F)cc23)C(C)C1` (stereo not given), the viability, T/C runs as follows: (compound 0.0316 µM) 104% and 97.8% and 91.6%; (compound 0.1 µM) 90.8% and 91.2% and 98.1%; (compound 0.316 µM) 90.4% and 93.1% and 102%; (compound 1 µM) 94.2% and 93.5% and 95.7%; (compound 3.16 µM) 91.2% and 93.4% and 92.8%; (compound 10 µM) 68.1% and 71.2% and 75.3%. The 50% inhibitory concentration (IC50) (curve of compound) is more than 10000 nM.

`COc1cccc2c1C(=O)c1c(O)c3c(c(O)c1C2=O)CC(O)(C(=O)CO)CC3OC1CC(N)C(O)C(C)O1` (stereo not given) + CN(C)c1ccc(Nc2c3ccc(NC(=O)CCN4CCCC4)cc3nc3cc(NC(=O)CCN4CCCC4)ccc23)cc1: the IC50 reads like this: under setting [1], 467 nM; under setting [2], 511 nM; under setting [3], 483 nM; under setting [4], 469 nM; under setting [5], 511 nM; under setting [6], 348 nM. Moreover, the viability, T/C runs as follows: under setting [7], 101%; under setting [8], 88%; under setting [9], 51.7%; under setting [10], 36.2%; under setting [11], 17.7%; under setting [12], 1.14%. Moreover, the viability, T/C was 101% under setting [13]; 92.3% under setting [14]; 47.3% under setting [15]; 41.3% under setting [16]; 20.1% under setting [17]; 0.23% under setting [18]. Moreover, the viability, T/C is, setting by setting: under setting [19], 105%; under setting [20], 90.8%; under setting [21], 49.3%; under setting [22], 38%; under setting [23], 20.1%; under setting [24], 0.36%. Also, the viability, T/C under setting [25] is 102%; the viability, T/C under setting [26] is 77.8%; the viability, T/C under setting [27] is 53.3%; the viability, T/C under setting [28] was 36%; the viability, T/C under setting [29] was 19.9%; the viability, T/C under setting [30] is 1.11%. In addition, the viability, T/C was 97.6% under setting [31]; 87.2% under setting [32]; 46.3% under setting [33]; 45.4% under setting [34]; 19.6% under setting [35]; 3.39% under setting [36]. For the same molecule, the viability, T/C runs as follows: under setting [37], 101%; under setting [38], 78%; under setting [39], 48.9%; under setting [40], 30.5%; under setting [41], 20.5%; under setting [42], 2.68%.

The record behind these values is PubChem BioAssay AID2060493 (Molecular Pharmacology Branch, DTP, NCI, 2025).
